This data set is described as follows: Examination on Stability (storage at 60° C. and 80% RH for 21 days, state of sample). Format: physicochemical. To be noted: glass vessel with lid opened (1-1 to 1-3) or closed glass bottle = tight package (1-4). The text has this: Examination on Stability […] […] Pemafibrate as it was placed in a glass vessel with a lid opened and labeled as Sample 1-1. […] Ethylcellulose ([…] Co., Ltd.) was mixed with pemafibrate in a ratio of 1 part by mass to 1 part by mass of pemafibrate to obtain a mixture. […] Ethylcellulose ([…] Co., Ltd.) was mixed with pemafibrate in a ratio of 1 part by mass to 1 part by mass of pemafibrate to obtain a mixture.

SMILES strings stand for the structures. “Also recorded” adds a separate entry of the source.

Turning to `CC[C@@H](Oc1cccc(CN(CCCOc2ccc(OC)cc2)c2nc3ccccc3o2)c1)C(=O)O` [Sample 1-1, (2R)-2-[3-([1,3-Benzoxazol-2-yl[3-(4-methoxyphenoxy)propyl]amino]methyl)phenoxy]butanoic acid], the “State of mixture, 21 days later” value (after 21 days of storage) was “maintained the same state; also recorded: White powder”. Under “start of storage”, the “State of mixture, immediately after the start of storage” value is “White powder”.

Source of the values: US12648933B2, “Pharmaceutical preparation” (KOWA COMPANY, LTD., priority 2018, dated 2026).
